Experimental data reported in US4194006A, “Therapeutic application of acetyl-d,l-carnitine and other acyl derivatives of d,l-carnitine” (priority 1977, dated 1980).
Like-named read-outs stand apart in the source and are kept apart here.

Key:
heart homogenates = experiment: oxygen consumption (Q O2) in heart homogenates with and without added CoA; assay type: biochemical; conditions: compound 10^-3 M
in vivo = conditions: mouse, in vivo, iv
Excerpt: The tolerance of acetyl-d,l-carnitine and of the other aforementioned acyl derivatives of the formula (I), as well as their salts were investigated by comparing the LD50 obtained by administering the compounds intravenously in mice with the LD50 obtained under the same experimental conditions by intravenous injection of d,l-carnitine.

isolated rabbit hearts [1] = experiment: cardiokinetic effect on isolated heart (Langendorff): contractile force after anoxia, positive inotropic effect; conditions: 10 minutes from interruption of anoxic period
How it was run: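 Rabbit hearts were perfused Langendorff-style with oxygenated Ringer at 38.2 °C. Anoxia was applied until contractile force dropped by 80%, then the hearts were reoxygenated with or without compound. Contractile force was expressed as a percentage 10 min after the anoxic period ended.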

isolated rabbit hearts [2] = experiment: coronary vasodilator effect: coronary flow, isolated heart (Langendorff)
How it was run: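 Langendorff-perfused isolated rabbit hearts in oxygenated Ringer at 38.2° C; anoxia imposed until contractile force fell by 80%, then reoxygenated with or without test compound. Coronary flow, isometric contraction and ECG recorded by polygraph.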

isolated rat atrium = experiment: antiarrhythmic effect, isolated rat atrium method of M. Libonati and G. Segre; conditions: Rattus norvegicus
female rats = experiment: antifatigue effect: rota-rod; assay type: in vivo, rat; conditions: Rattus norvegicus, ip, 0.25 h; for responders at 200 mg/kg: read-out: percentage of animals staying on the rota-rod more than 180 seconds, 200 mg/kg i.p.; for responders at 300 mg/kg: read-out: percentage of animals staying on the rota-rod more than 180 seconds, 300 mg/kg i.p.; for responders at 400 mg/kg: read-out: percentage of animals staying on the rota-rod more than 180 seconds, 400 mg/kg i.p.; for responders at 600 mg/kg: read-out: percentage of animals staying on the rota-rod more than 180 seconds, 600 mg/kg i.p.
How it was run: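 Female rats dosed intraperitoneally in saline, with controls given saline alone. Every 15 min after treatment animals were placed on a 6 cm rod rotating at 16 r.p.m. Value is the percentage of animals staying on the rod for more than 180 s, per session.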

[3] = read-out: Mean percent variation versus controls: excitability (-%)
[4] = read-out: Mean percent variation versus controls: frequency max (-%)
[5] = read-out: Mean percent variation versus controls: refractory period (+%)
[6] = read-out: Mean percent variation versus controls: rheobase (+%)
[7] = session 6 (every 15 minutes), * p < 0.05

Which “Q O2” value (heart homogenates; added CoA 0) does the source give for C[N+](C)(C)CC(O)CC(=O)[O-] (racemic) [d,l-carnitine, γ-trimethyl amino β-hydroxy butyric acid] here?
Its value is 7.0 μlO2 /mg protein/hr.

And the “Q O2” value (heart homogenates; added CoA 2 × 10^-6 M)?
The value was 8.4 μlO2 /mg protein/hr.

What about the “Q O2” value (heart homogenates; added CoA 4 × 10^-6 M) of the same compound?
Its value is 19.5 μlO2 /mg protein/hr.

What about the “Q O2” value (heart homogenates; added CoA 8 × 10^-7 M) of the same compound?
Its value is 8.1 μlO2 /mg protein/hr.

And the LD50 (in vivo)?
The LD50 was roughly 610 mg/kg.

And the “Contractile force, Mean ± S.E.” value (isolated rabbit hearts [1]; 1·10^-5 g/lt)?
The value was 50.9 ± 3.01%.

What about the “Contractile force, Mean ± S.E.” value (isolated rabbit hearts [1]; 1·10^-6 g/lt) of the same compound?
Its value is 28.4 ± 3.15%.

What about the “Contractile force, Mean ± S.E.” value (isolated rabbit hearts [1]; 5·10^-6 g/lt) of the same compound?
The value was 32.2 ± 2.90%.

What about the “Coronary flow, Mean ± S.E.” value (isolated rabbit hearts [2]; 1·10^-5 g/lt) of the same compound?
Its value is 85.18 ± 3.26%.

What about the “Coronary flow, Mean ± S.E.” value (isolated rabbit hearts [2]; 1·10^-6 g/lt) of the same compound?
Its value is 74.02 ± 6.17%.

What about the “Coronary flow, Mean ± S.E.” value (isolated rabbit hearts [2]; 5·10^-6 g/lt) of the same compound?
The value was 77.85 ± 3.01%.

And the inhibition at 0.001 µg/mL (isolated rat atrium; [3])?
The inhibition at 0.001 µg/mL was 12.7%.

And the inhibition at 0.01 µg/mL (isolated rat atrium; [3])?
Its inhibition at 0.01 µg/mL is 19.3%.

And the inhibition at 0.1 µg/mL (isolated rat atrium; [3])?
Its inhibition at 0.1 µg/mL is 27.1%.

And the inhibition at 0.001 µg/mL (isolated rat atrium; [4])?
The inhibition at 0.001 µg/mL was 7.28%.

What about the inhibition at 0.01 µg/mL (isolated rat atrium; [4]) of the same compound?
Its inhibition at 0.01 µg/mL is 23.6%.

And the inhibition at 0.1 µg/mL (isolated rat atrium; [4])?
Its inhibition at 0.1 µg/mL is 25.2%.

And the activation at 0.001 µg/mL (isolated rat atrium; [5])?
The activation at 0.001 µg/mL was 18.3%.

What about the activation at 0.01 µg/mL (isolated rat atrium; [5]) of the same compound?
Its activation at 0.01 µg/mL is 26%.

What about the activation at 0.1 µg/mL (isolated rat atrium; [5]) of the same compound?
Its activation at 0.1 µg/mL is 31.1%.

What about the activation at 0.001 µg/mL (isolated rat atrium; [6]) of the same compound?
The activation at 0.001 µg/mL was 5.81%.

What about the activation at 0.01 µg/mL (isolated rat atrium; [6]) of the same compound?
Its activation at 0.01 µg/mL is 9.07%.

What about the activation at 0.1 µg/mL (isolated rat atrium; [6]) of the same compound?
The activation at 0.1 µg/mL was 20.3%.

What about the responders at 200 mg/kg (female rats; session 1 (every 15 minutes)) of the same compound?
Its responders at 200 mg/kg is 0%.

And the responders at 200 mg/kg (female rats; session 2 (every 15 minutes))?
Its responders at 200 mg/kg is 0%.

And the responders at 200 mg/kg (female rats; session 3 (every 15 minutes))?
Its responders at 200 mg/kg is 0%.

And the responders at 200 mg/kg (female rats; session 4 (every 15 minutes))?
Its responders at 200 mg/kg is 0%.

What about the responders at 200 mg/kg (female rats; session 5 (every 15 minutes), * p < 0.05) of the same compound?
Its responders at 200 mg/kg is 0%.

What about the responders at 200 mg/kg (female rats; [7]) of the same compound?
The responders at 200 mg/kg was 0%.

What about the responders at 300 mg/kg (female rats; session 1 (every 15 minutes)) of the same compound?
Its responders at 300 mg/kg is 0%.

What about the responders at 300 mg/kg (female rats; session 2 (every 15 minutes)) of the same compound?
The responders at 300 mg/kg was 0%.

What about the responders at 300 mg/kg (female rats; session 3 (every 15 minutes)) of the same compound?
Its responders at 300 mg/kg is 0%.

What about the responders at 300 mg/kg (female rats; session 4 (every 15 minutes)) of the same compound?
The responders at 300 mg/kg was 0%.

And the responders at 300 mg/kg (female rats; session 5 (every 15 minutes))?
The responders at 300 mg/kg was 10%.

What about the responders at 300 mg/kg (female rats; session 6 (every 15 minutes)) of the same compound?
Its responders at 300 mg/kg is 10%.

What about the responders at 400 mg/kg (female rats; session 1 (every 15 minutes)) of the same compound?
The responders at 400 mg/kg was 0%.

And the responders at 400 mg/kg (female rats; session 2 (every 15 minutes))?
The responders at 400 mg/kg was 0%.

What about the responders at 400 mg/kg (female rats; session 3 (every 15 minutes)) of the same compound?
The responders at 400 mg/kg was 8.33%.

And the responders at 400 mg/kg (female rats; session 4 (every 15 minutes))?
The responders at 400 mg/kg was 25%.

What about the responders at 400 mg/kg (female rats; session 5 (every 15 minutes)) of the same compound?
The responders at 400 mg/kg was 25%.

And the responders at 400 mg/kg (female rats; [7])?
Its responders at 400 mg/kg is 25%.

What about the responders at 600 mg/kg (female rats; session 1 (every 15 minutes)) of the same compound?
The responders at 600 mg/kg was 0%.

What about the responders at 600 mg/kg (female rats; session 2 (every 15 minutes)) of the same compound?
The responders at 600 mg/kg was 16.7%.

What about the responders at 600 mg/kg (female rats; session 3 (every 15 minutes)) of the same compound?
The responders at 600 mg/kg was 16.7%.

What about the responders at 600 mg/kg (female rats; session 4 (every 15 minutes)) of the same compound?
Its responders at 600 mg/kg is 16.7%.

What about the responders at 600 mg/kg (female rats; session 5 (every 15 minutes)) of the same compound?
Its responders at 600 mg/kg is 16.7%.

And the responders at 600 mg/kg (female rats; [7])?
Its responders at 600 mg/kg is 25%.
